One assay relates to Candida tropicalis. As to the kind of experiment: Antifungal activity against Candida tropicalis after 18 hr by broth microdilution technique. It counts as functional.
Another assay concerns Enterococcus faecalis. As to the kind of experiment: Antibacterial activity against Enterococcus faecalis after 18 hr by broth microdilution technique. It counts as functional. For orientation: Broth dilution looks for growth in wells or tubes with falling amounts of substance.
In a further assay the test system is Pseudomonas aeruginosa. As to the kind of experiment: Antibacterial activity against Pseudomonas aeruginosa after 18 hr by broth microdilution technique. The class given is functional.
For another assay, the system named is Bacillus subtilis. The assay can be described thus: Antibacterial activity against Bacillus subtilis after 18 hr by broth microdilution technique. It counts as functional.
The subject of the next assay is Aspergillus niger. As to the kind of experiment: Antifungal activity against Aspergillus niger after 18 hr by broth microdilution technique. It counts as functional.
For a further assay, the system named is Staphylococcus aureus. The assay can be described thus: Antibacterial activity against Staphylococcus aureus after 18 hr by broth microdilution technique. It counts as functional.
A further assay has as its system Saccharomyces cerevisiae. The assay can be described thus: Antifungal activity against Saccharomyces cerevisiae after 18 hr by broth microdilution technique. It counts as functional.
The next assay concerns Escherichia coli. As to the kind of experiment: Antibacterial activity against Escherichia coli after 18 hr by broth microdilution technique. The class given is functional.
In assay [1] the test system is Mycobacterium tuberculosis. As to the kind of experiment: Antimycobacterial activity against Mycobacterium tuberculosis H37Rv after 21 days by broth dilution method. The class given is functional. The conditions noted are these: 504 h.
In another assay the test system is Klebsiella pneumoniae. As to the kind of experiment: Antibacterial activity against Klebsiella pneumoniae after 18 hr by broth microdilution technique. It counts as functional.
For another assay, the system named is A549. As to the kind of experiment: Cytotoxicity against Homo sapiens (human) A549 cells after 72 hr by MTT assay. It counts as cell-based. The conditions noted are these: A549, 72 h. On the technique in general: Tetrazolium dyes change colour on reduction, which living cells bring about.
The subject of another assay is Vero. The assay can be described thus: Cytotoxicity against Chlorocebus aethiops (African green monkey) Vero cells after 72 hr by MTT assay. It counts as cell-based. The conditions noted are these: Chlorocebus sabaeus.

pIC50: −log10 of the molar value. Converted amounts (≈) assume the structure as drawn.

Broadly, the MIC is the smallest concentration in the dilution series that meets the test's criterion for growth inhibition. For `C/C(=N/NC(=O)c1ccc(-n2c(C)ccc2C)cc1)c1ccc(N)cc1`, the MIC with Candida tropicalis was found to be 62.5 µg/mL (≈ 180 µM); in the assay on Enterococcus faecalis, 62.5 µg/mL (≈ 180 µM); against Pseudomonas aeruginosa, 500 µg/mL (≈ 1440 µM); against Bacillus subtilis, 62.5 µg/mL (≈ 180 µM); with Aspergillus niger, 62.5 µg/mL (≈ 180 µM); in the assay on Staphylococcus aureus, 31.2 µg/mL (≈ 90.2 µM). In addition, the MIC in the assay on Saccharomyces cerevisiae came to 62.5 µg/mL (≈ 180 µM); in the assay with Escherichia coli, 500 µg/mL (≈ 1440 µM); in assay [1], 31.2 µg/mL (≈ 90.2 µM); in the assay on Klebsiella pneumoniae, 500 µg/mL (≈ 1440 µM).

On to `Cc1ccc(C)n1-c1ccc(C(=O)N/N=C/c2ccccc2)cc1`, for which the MIC against Candida tropicalis was determined as 31.2 µg/mL (≈ 98.5 µM); in the assay with Enterococcus faecalis, 62.5 µg/mL (≈ 197 µM); in the assay with Pseudomonas aeruginosa, 62.5 µg/mL (≈ 197 µM); against Bacillus subtilis, 31.2 µg/mL (≈ 98.5 µM); with Aspergillus niger, 31.2 µg/mL (≈ 98.5 µM); against Staphylococcus aureus it was 31.2 µg/mL (≈ 98.5 µM). Further, the MIC with Saccharomyces cerevisiae came to 62.5 µg/mL (≈ 197 µM); against Escherichia coli, 62.5 µg/mL (≈ 197 µM); in assay [1], 31.2 µg/mL (≈ 98.5 µM); against Klebsiella pneumoniae it was 62.5 µg/mL (≈ 197 µM).

On to `Cc1ccc(C)n1-c1ccc(C(=O)N/N=C/c2ccccc2Cl)cc1`, for which the MIC stood at 8 µg/mL (≈ 22.7 µM) in the assay with Candida tropicalis; 31.2 µg/mL (≈ 88.8 µM) against Enterococcus faecalis; 500 µg/mL (≈ 1420 µM) with Pseudomonas aeruginosa; 8 µg/mL (≈ 22.7 µM) against Bacillus subtilis; 16 µg/mL (≈ 45.5 µM) against Aspergillus niger; 16 µg/mL (≈ 45.5 µM) in the assay on Staphylococcus aureus. For the same compound, the MIC with Saccharomyces cerevisiae stood at 31.2 µg/mL (≈ 88.8 µM); against Escherichia coli, 500 µg/mL (≈ 1420 µM); in assay [1] it was 16 µg/mL (≈ 45.5 µM); in the assay with Klebsiella pneumoniae, 62.5 µg/mL (≈ 178 µM).

As for `Cc1ccc(C)n1-c1ccc(C(=O)N/N=C/c2ccc(Br)cc2)cc1`, the MIC in the assay with Candida tropicalis is 8 µg/mL (≈ 20.2 µM); against Enterococcus faecalis, 31.2 µg/mL (≈ 78.9 µM); against Pseudomonas aeruginosa, over 500 µg/mL; against Bacillus subtilis it was 16 µg/mL (≈ 40.4 µM); with Aspergillus niger, 16 µg/mL (≈ 40.4 µM); in the assay on Staphylococcus aureus, 16 µg/mL (≈ 40.4 µM). Also, the MIC in the assay with Saccharomyces cerevisiae was 31.2 µg/mL (≈ 78.9 µM); with Escherichia coli, 500 µg/mL (≈ 1260 µM); in [1] it was 16 µg/mL (≈ 40.4 µM); against Klebsiella pneumoniae, 500 µg/mL (≈ 1260 µM).

Take `Cc1ccc(C)n1-c1ccc(C(=O)N/N=C/c2c(Cl)cccc2Cl)cc1`: the MIC amounted to 4 µg/mL (≈ 10.4 µM) with Candida tropicalis; 16 µg/mL (≈ 41.4 µM) in the assay on Enterococcus faecalis; 500 µg/mL (≈ 1290 µM) in the assay with Pseudomonas aeruginosa; 16 µg/mL (≈ 41.4 µM) in the assay on Bacillus subtilis; 4 µg/mL (≈ 10.4 µM) against Aspergillus niger; 16 µg/mL (≈ 41.4 µM) against Staphylococcus aureus. Besides, the MIC was determined as 31.2 µg/mL (≈ 80.9 µM) against Saccharomyces cerevisiae, 500 µg/mL (≈ 1290 µM) with Escherichia coli, 16 µg/mL (≈ 41.4 µM) in [1] and 500 µg/mL (≈ 1290 µM) in the assay with Klebsiella pneumoniae.

On to `Cc1ccc(C)n1-c1ccc(C(=O)N/N=C/c2cccc([N+](=O)[O-])c2)cc1`, for which the MIC against Candida tropicalis is 16 µg/mL (≈ 44.2 µM); with Enterococcus faecalis, 31.2 µg/mL (≈ 86.2 µM); against Pseudomonas aeruginosa, 500 µg/mL (≈ 1380 µM); with Bacillus subtilis it was 31.2 µg/mL (≈ 86.2 µM); against Aspergillus niger, 16 µg/mL (≈ 44.2 µM); with Staphylococcus aureus it was 31.2 µg/mL (≈ 86.2 µM). In addition, the MIC in the assay with Saccharomyces cerevisiae stood at 31.2 µg/mL (≈ 86.2 µM); in the assay with Escherichia coli, 500 µg/mL (≈ 1380 µM); in assay [1], 62.5 µg/mL (≈ 172 µM); in the assay on Klebsiella pneumoniae, 500 µg/mL (≈ 1380 µM).

`Cc1ccc(C)n1-c1ccc(C(=O)N/N=C/c2ccccc2[N+](=O)[O-])cc1`: the MIC against Candida tropicalis was 16 µg/mL (≈ 44.2 µM); with Enterococcus faecalis, 31.2 µg/mL (≈ 86.2 µM); against Pseudomonas aeruginosa it was over 500 µg/mL; in the assay with Bacillus subtilis, 31.2 µg/mL (≈ 86.2 µM); with Aspergillus niger, 16 µg/mL (≈ 44.2 µM); against Staphylococcus aureus it was 62.5 µg/mL (≈ 172 µM). Also, the MIC against Saccharomyces cerevisiae was 31.2 µg/mL (≈ 86.2 µM); in the assay with Escherichia coli it was over 500 µg/mL; in assay [1], 62.5 µg/mL (≈ 172 µM); with Klebsiella pneumoniae it was over 500 µg/mL.

For the compound `O=C(O)c1cn(C2CC2)c2cc(N3CCNCC3)c(F)cc2c1=O` [CIPROFLOXACIN], the MIC with Enterococcus faecalis was under 5 µg/mL; against Pseudomonas aeruginosa, over 5 µg/mL; against Bacillus subtilis, at most 1 µg/mL; against Staphylococcus aureus it was under 5 µg/mL; against Escherichia coli it was at most 1 µg/mL; in the assay with Klebsiella pneumoniae, at most 1 µg/mL.

Consider `OC(Cn1cncn1)(Cn1cncn1)c1ccc(F)cc1F` [FLUCONAZOLE], for which the minimum inhibitory concentration (MIC) against Candida tropicalis, in the assay on Aspergillus niger and with Saccharomyces cerevisiae was at most 1 µg/mL each time.

By pIC50 is commonly meant −log10 of the IC50, conventionally taken in molar units. As for `NNC(=O)c1ccncc1` [ISONIAZID], the negative logarithm of the IC50 (pIC50) in the assay with A549 and in the assay on Vero was under 3.35 throughout. Besides, the MIC in assay [1] is 0.25 µg/mL (≈ 1.82 µM).

Take `CCn1cc(C(=O)O)c(=O)c2cc(F)c(N3CCNCC3)cc21` [NORFLOXACIN]: the MIC is under 5 µg/mL against Enterococcus faecalis; over 5 µg/mL against Pseudomonas aeruginosa; at most 1 µg/mL in the assay with Bacillus subtilis; under 5 µg/mL against Staphylococcus aureus; at most 1 µg/mL against Escherichia coli; at most 1 µg/mL in the assay on Klebsiella pneumoniae.

(Values after ChEMBL document CHEMBL3046206, “Synthesis of new 4-(2,5-dimethylpyrrol-1-yl)/4-pyrrol-1-yl benzoic acid hydrazide analogs and some derived oxadiazole, triazole and pyrrole ring systems: a novel class of potential antibacterial, antifungal and antitubercular agents” (Med Chem Res, 2013).)
